# Assay results reported in PubChem BioAssay (NCI).
#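 GI50 marks 50% less growth. The concentration for full growth arrest is given as TGI.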
# Key:
# Assay in all cases: NCI anticancer screen, dose series, 384-well format
# [1] = system: 786-0 renal
# [2] = system: A498 renal
# [3] = system: A549 NSCLC
# [4] = system: ACHN renal
# [5] = system: BT-549 breast
# [6] = system: CAKI-1 renal
# [7] = system: CCRF-CEM leukemia
# [8] = system: DU-145 prostate
# [9] = system: HCT-116 colon
# [10] = system: HCT-15 colon
# [11] = system: HL-60(TB) leukemia
# [12] = system: HOP-62 NSCLC
# [13] = system: HOP-92 NSCLC
# [14] = system: HT29 colon
# [15] = system: IGROV1 ovarian
# [16] = system: K-562 leukemia
# [17] = system: KM12 colon
# [18] = system: LOX IMVI melanoma
# [19] = system: M14 melanoma
# [20] = system: MALME-3M melanoma
# [21] = system: MCF7 breast
# [22] = system: MDA-MB-231 breast
# [23] = system: MDA-MB-435 melanoma
# [24] = system: MDA-MB-468 breast
# [25] = system: MOLT-4 leukemia
# [26] = system: NCI-H226 lung
# [27] = system: NCI-H23 lung
# [28] = system: NCI-H522 lung
# [29] = system: NCI/ADR-RES ovarian
# [30] = system: OVCAR-3 ovarian
# [31] = system: OVCAR-5 ovarian
# [32] = system: OVCAR-8 ovarian
# [33] = system: PC-3 prostate
# [34] = system: RPMI-8226 leukemia
# [35] = system: RXF 393 renal
# [36] = system: SF-268 CNS
# [37] = system: SF-295 CNS
# [38] = system: SF-539 CNS
# [39] = system: SK-MEL-2 melanoma
# [40] = system: SK-MEL-28 melanoma
# [41] = system: SK-OV-3 ovarian
# [42] = system: SN12C renal
# [43] = system: SNB-19 CNS
# [44] = system: SNB-75 CNS
# [45] = system: SW-620 colon
# [46] = system: T-47D breast
# [47] = system: TK-10 renal
# [48] = system: U251 glioblastoma
# [49] = system: UACC-62 melanoma
# [50] = system: UO-31 renal
smiles,measurement,setting,value
O=c1[nH]cc(N(CCCl)CCCl)c(=O)[nH]1,GI50,[1],16.8 µM
same,GI50,[2],68.9 µM
same,GI50,[3],26.8 µM
same,GI50,[4],2.88 µM
same,TGI,[4],8.7 µM
same,GI50,[5],11.2 µM
same,TGI,[5],46.8 µM
same,GI50,[6],4.39 µM
same,TGI,[6],76.3 µM
same,GI50,[7],2.21 µM
same,TGI,[7],4.17 µM
same,GI50,[8],14.1 µM
same,TGI,[8],42.1 µM
same,GI50,[9],7.54 µM
same,GI50,[10],7.48 µM
same,GI50,[11],1.23 µM
same,TGI,[11],2.57 µM
same,GI50,[12],7.79 µM
same,TGI,[12],31.3 µM
same,GI50,[13],19.3 µM
same,GI50,[14],24.5 µM
same,GI50,[15],91.9 µM
same,GI50,[16],17.4 µM
same,GI50,[17],98.9 µM
same,GI50,[18],19.4 µM
same,GI50,[19],9.7 µM
same,TGI,[19],61.6 µM
same,GI50,[20],19.2 µM
same,GI50,[21],18 µM
same,GI50,[22],35.1 µM
same,GI50,[23],86.4 µM
same,GI50,[24],2.73 µM
same,TGI,[24],14.2 µM
same,GI50,[25],0.594 µM
same,TGI,[25],1.87 µM
same,GI50,[26],51.4 µM
same,GI50,[27],12.3 µM
same,TGI,[27],57.9 µM
same,GI50,[28],12.7 µM
same,TGI,[28],25.6 µM
same,GI50,[29],15.8 µM
same,GI50,[30],23.5 µM
same,GI50,[31],20.1 µM
same,TGI,[31],67.4 µM
same,GI50,[32],9.13 µM
same,GI50,[33],73.1 µM
same,GI50,[34],6.85 µM
same,TGI,[34],20.3 µM
same,GI50,[35],13.2 µM
same,TGI,[35],27.4 µM
same,GI50,[36],5.68 µM
same,TGI,[36],41.1 µM
same,GI50,[37],8.54 µM
same,TGI,[37],26.4 µM
same,GI50,[38],7.24 µM
same,TGI,[38],29.8 µM
same,GI50,[39],68 µM
same,GI50,[40],65.8 µM
same,GI50,[41],28.9 µM
same,GI50,[42],4.66 µM
same,TGI,[42],53.6 µM
same,GI50,[43],24.6 µM
same,GI50,[44],29.1 µM
same,GI50,[45],8.78 µM
same,GI50,[46],30 µM
same,GI50,[47],50 µM
same,GI50,[48],10.2 µM
same,GI50,[49],6.43 µM
same,GI50,[50],20.3 µM
